How the values were obtained:
Test in all cases: Post-emergence test, weed control effect
Format in all cases: in vivo
Settings in all cases: after 3 weeks
Amaranthus retroflexus = tested on: Amaranthus retroflexus
Procedure, shortened: (§1)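 Activity is expressed as a level from 0 (no effect) to 10 (plant dead), each step matching a further 10% fresh-weight inhibition, assessed 3 weeks post-treatment. Treatment: spray at 2-3 leaf stage of pot-grown plants, compound in acetone, Tween-80 and water with 80% vegetable oil methyl ester synergist at 1500 g/ha.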

Rorippa indica = tested on: Rorippa indica
Procedure, shortened: as §1

Veronica polita = tested on: Veronica polita
Procedure, shortened: as §1

Chenopodiaceae = tested on: Chenopodiaceae
Procedure, shortened: as §1

CCCCC(=O)Oc1cc(C(F)(F)F)nnc1-c1ccc(Cl)c(Cl)c1 [Compound 1-7]
10: weed control effect, Amaranthus retroflexus (activity level) (Amaranthus retroflexus; Dose 3000 g/ha) | weed control effect, Rorippa indica (activity level) (Rorippa indica; Dose 3000 g/ha) | weed control effect, Veronica polita (activity level) (Veronica polita; Dose 3000 g/ha) | weed control effect, Chenopodiaceae (activity level) (Chenopodiaceae; Dose 3000 g/ha)

Cn1ncc(I)c1-c1nnc(C(F)(F)F)cc1O [Compound 807]
10: weed control effect (activity level), Amaranthus retroflexus (Amaranthus retroflexus; Dose 3000 g/ha) | weed control effect (activity level), Rorippa indica (Rorippa indica; Dose 3000 g/ha) | weed control effect (activity level), Veronica polita (Veronica polita; Dose 3000 g/ha) | weed control effect (activity level), Chenopodiaceae (Chenopodiaceae; Dose 3000 g/ha)

CCOc1cc(-c2nnc(C(F)(F)F)cc2O)n(C)n1 [Compound 783]
10: weed control effect (activity level), Amaranthus retroflexus (Amaranthus retroflexus; Dose 3000 g/ha) | weed control effect (activity level), Rorippa indica (Rorippa indica; Dose 3000 g/ha) | weed control effect (activity level), Veronica polita (Veronica polita; Dose 3000 g/ha) | weed control effect (activity level), Chenopodiaceae (Chenopodiaceae; Dose 3000 g/ha)

Cc1cccc(C2CC2)c1-c1nnc(C(F)(F)F)cc1O [Compound 735]
10: weed control effect (activity level), Amaranthus retroflexus (Amaranthus retroflexus; dose 1000 g/ha) | weed control effect (activity level), Rorippa indica (Rorippa indica; dose 1000 g/ha) | weed control effect (activity level), Veronica polita (Veronica polita; dose 1000 g/ha) | weed control effect (activity level), Chenopodiaceae (Chenopodiaceae; dose 1000 g/ha)

Oc1cc(C(F)(F)F)nnc1-c1ccc(Br)cc1 [Compound 28]
10: weed control effect (activity level), Amaranthus retroflexus (Amaranthus retroflexus; dose 1000 g/ha) | weed control effect (activity level), Rorippa indica (Rorippa indica; dose 1000 g/ha) | weed control effect (activity level), Veronica polita (Veronica polita; dose 1000 g/ha) | weed control effect (activity level), Chenopodiaceae (Chenopodiaceae; dose 1000 g/ha)

Oc1cc(C(F)(F)F)nnc1-c1cncc(Cl)c1F [Compound 1008]
10: weed control effect (activity level), Amaranthus retroflexus (Amaranthus retroflexus; Dose 3000 g/ha) | weed control effect (activity level), Rorippa indica (Rorippa indica; Dose 3000 g/ha) | weed control effect (activity level), Veronica polita (Veronica polita; Dose 3000 g/ha) | weed control effect (activity level), Chenopodiaceae (Chenopodiaceae; Dose 3000 g/ha)

O=S(=O)(Oc1cc(C(F)(F)F)nnc1-c1ccc(F)c(F)c1)c1ccc(Cl)cc1 [Compound 1-130]
10: weed control effect, Amaranthus retroflexus (activity level) (Amaranthus retroflexus; Dose 3000 g/ha) | weed control effect, Rorippa indica (activity level) (Rorippa indica; Dose 3000 g/ha) | weed control effect, Veronica polita (activity level) (Veronica polita; Dose 3000 g/ha) | weed control effect, Chenopodiaceae (activity level) (Chenopodiaceae; Dose 3000 g/ha)

CCc1cc(C(F)(F)F)cc(-c2nnc(C(F)(F)F)cc2O)c1C#N [Compound 163]
10: weed control effect (activity level), Amaranthus retroflexus (Amaranthus retroflexus; dose 2000 g/ha) | weed control effect (activity level), Rorippa indica (Rorippa indica; dose 2000 g/ha) | weed control effect (activity level), Veronica polita (Veronica polita; dose 2000 g/ha) | weed control effect (activity level), Chenopodiaceae (Chenopodiaceae; dose 2000 g/ha)

C=Cc1cc(-c2nnc(C(F)(F)F)cc2O)c(F)cc1Cl [Compound 166]
10: weed control effect (activity level), Amaranthus retroflexus (Amaranthus retroflexus; dose 2000 g/ha) | weed control effect (activity level), Rorippa indica (Rorippa indica; dose 2000 g/ha) | weed control effect (activity level), Veronica polita (Veronica polita; dose 2000 g/ha) | weed control effect (activity level), Chenopodiaceae (Chenopodiaceae; dose 2000 g/ha)

Oc1cc(C(F)(F)F)nnc1-c1cnc(Cl)cc1Cl [Compound 995]
10: weed control effect (activity level), Amaranthus retroflexus (Amaranthus retroflexus; Dose 3000 g/ha) | weed control effect (activity level), Rorippa indica (Rorippa indica; Dose 3000 g/ha) | weed control effect (activity level), Veronica polita (Veronica polita; Dose 3000 g/ha) | weed control effect (activity level), Chenopodiaceae (Chenopodiaceae; Dose 3000 g/ha)

Oc1cc(C(F)(F)F)nnc1-c1cc(Cl)c(-c2ccccc2)c(Cl)c1 [Compound 168]
10: weed control effect (activity level), Amaranthus retroflexus (Amaranthus retroflexus; dose 2000 g/ha) | weed control effect (activity level), Rorippa indica (Rorippa indica; dose 2000 g/ha) | weed control effect (activity level), Veronica polita (Veronica polita; dose 2000 g/ha) | weed control effect (activity level), Chenopodiaceae (Chenopodiaceae; dose 2000 g/ha)

O=C1CCCCN1C(=O)Oc1cc(C(F)(F)F)nnc1-c1ccc(F)cc1 [Compound 1-69]
10: weed control effect, Amaranthus retroflexus (activity level) (Amaranthus retroflexus; Dose 3000 g/ha) | weed control effect, Rorippa indica (activity level) (Rorippa indica; Dose 3000 g/ha) | weed control effect, Veronica polita (activity level) (Veronica polita; Dose 3000 g/ha) | weed control effect, Chenopodiaceae (activity level) (Chenopodiaceae; Dose 3000 g/ha)

O=C(Oc1cc(C(F)(F)F)nnc1-c1ccccc1)C1CCCCC1 [Compound 1-19]
10: weed control effect, Amaranthus retroflexus (activity level) (Amaranthus retroflexus; Dose 3000 g/ha) | weed control effect, Rorippa indica (activity level) (Rorippa indica; Dose 3000 g/ha) | weed control effect, Veronica polita (activity level) (Veronica polita; Dose 3000 g/ha) | weed control effect, Chenopodiaceae (activity level) (Chenopodiaceae; Dose 3000 g/ha)

O=S(=O)(Oc1cc(C(F)(F)F)nnc1-c1ccc(F)c(F)c1)c1ccc2ncsc2c1 [Compound 1-147]
10: weed control effect, Amaranthus retroflexus (activity level) (Amaranthus retroflexus; Dose 3000 g/ha) | weed control effect, Rorippa indica (activity level) (Rorippa indica; Dose 3000 g/ha) | weed control effect, Veronica polita (activity level) (Veronica polita; Dose 3000 g/ha) | weed control effect, Chenopodiaceae (activity level) (Chenopodiaceae; Dose 3000 g/ha)

CCN(CC)C(=S)Oc1cc(C(F)(F)F)nnc1-c1ccc(F)cc1 [Compound 1-162]
10: weed control effect, Amaranthus retroflexus (activity level) (Amaranthus retroflexus; Dose 3000 g/ha) | weed control effect, Rorippa indica (activity level) (Rorippa indica; Dose 3000 g/ha) | weed control effect, Veronica polita (activity level) (Veronica polita; Dose 3000 g/ha) | weed control effect, Chenopodiaceae (activity level) (Chenopodiaceae; Dose 3000 g/ha)

Cc1cncc(-c2nnc(C(F)(F)F)cc2O)c1 [Compound 211]
10: weed control effect (activity level), Amaranthus retroflexus (Amaranthus retroflexus; dose 2000 g/ha) | weed control effect (activity level), Rorippa indica (Rorippa indica; dose 2000 g/ha) | weed control effect (activity level), Veronica polita (Veronica polita; dose 2000 g/ha) | weed control effect (activity level), Chenopodiaceae (Chenopodiaceae; dose 2000 g/ha)

Oc1cc(C(F)(F)F)nnc1-c1ccc(Cl)nc1F [Compound 997]
10: weed control effect (activity level), Amaranthus retroflexus (Amaranthus retroflexus; Dose 3000 g/ha) | weed control effect (activity level), Rorippa indica (Rorippa indica; Dose 3000 g/ha) | weed control effect (activity level), Veronica polita (Veronica polita; Dose 3000 g/ha) | weed control effect (activity level), Chenopodiaceae (Chenopodiaceae; Dose 3000 g/ha)

O=C(Oc1cc(C(F)(F)F)nnc1-c1ccc(Cl)c(Cl)c1)Sc1ccccc1 [Compound 1-102]
10: weed control effect, Amaranthus retroflexus (activity level) (Amaranthus retroflexus; Dose 3000 g/ha) | weed control effect, Rorippa indica (activity level) (Rorippa indica; Dose 3000 g/ha) | weed control effect, Veronica polita (activity level) (Veronica polita; Dose 3000 g/ha) | weed control effect, Chenopodiaceae (activity level) (Chenopodiaceae; Dose 3000 g/ha)
